In ChEMBL document CHEMBL1148698, “Chemotherapy of leishmaniasis. Part VII: synthesis and bioevaluation of substituted terpenyl pyrimidines” (2007):
The source made the active and inactive calls. The rule behind the calls is not given here.

Test system: Leishmania donovani
Assay: Antileishmanial activity against Leishmania donovani HOM/IN/80DD8 in hamster at 50 mg/kg, ip after 7 days
Conditions: for inhibition in vivo at 50 mg/kg: HOM/IN/80DD8, ip, 168 h

| SMILES | inhibition in vivo at 50 mg/kg [%] | Activity |
| --- | --- | --- |
| CCN(c1ccccc1)c1cc(/C=C/C2=C(C)CCCC2(C)C)nc(N)n1 | 40 |  |
| CC1=C(/C=C/c2cc(Nc3ccc(Cl)cc3)nc(N)n2)C(C)(C)CCC1 |  | inactive |
| CC1=C(/C=C/c2cc(N3CCOCC3)nc(N)n2)C(C)(C)CCC1 |  | inactive |
| CC1=C(/C=C/c2cc(Nc3cccc(F)c3)nc(N)n2)C(C)(C)CCC1 |  | inactive |
| CC1=C(/C=C/c2cc(N3CCNCC3)nc(N)n2)C(C)(C)CCC1 |  | inactive |
| CC1=C(/C=C/c2cc(NN)nc(N)n2)C(C)(C)CCC1 |  | inactive |
| CC1=C(/C=C/c2cc(NC3CCCCC3)nc(N)n2)C(C)(C)CCC1 |  | inactive |
| CC1=C(/C=C/c2cc(N3CCN(c4ccccc4)CC3)nc(N)n2)C(C)(C)CCC1 |  | inactive |
| CC1=C(/C=C/c2cc(N3CCCCC3)nc(N)n2)C(C)(C)CCC1 |  | inactive |
| CSc1cc(/C=C/C2=C(C)CCCC2(C)C)nc(N)n1 | 66 |  |
| COc1ccc(Nc2cc(/C=C/C3=C(C)CCCC3(C)C)nc(N)n2)cc1 |  | inactive |
| CC1=C(/C=C/c2cc(NCc3ccccc3)nc(N)n2)C(C)(C)CCC1 |  | inactive |
| CC1=C(/C=C/c2cc(Nc3ccc(F)cc3)nc(N)n2)C(C)(C)CCC1 |  | inactive |
| CC1=C(/C=C/c2cc(Nc3ccccc3)nc(N)n2)C(C)(C)CCC1 | 31 |  |
